Measured values as given in US12606528B2, “Methods and materials for inhibiting NF-kB activity” (University of Pittsburgh - Of the Commonwealth System of …, priority 2019, dated 2026).
pIC50: −log10 of the molar value. Read-outs that look alike come from different tables or passages of the source.

Columns and labels:
[1] = system: NF-κB; assay: NF-κB assay: THP1-NF-κB-LUC cells, LPS-stimulated secreted luciferase; type: cell-based; details: THP1-NF-κB-LUC cells, read-out: IC50 (NF-κB assay)
In short: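 THP1-NF-κB-LUC cells (25k/well) were pretreated with compounds for 2 h, then stimulated with LPS (10 ng/mL) for 18 h. Secreted luciferase was measured and normalized to vehicle, and IC50 was fitted from the concentration series.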

[2] = system: TNF release; assay: TNF assay: TNF release from LPS-stimulated human PBMCs (TNF ELISA); type: cell-based; details: PBMC, read-out: IC50 (TNF assay)
In short: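 TNF ELISA on supernatants read-out; cells were 10k human PBMCs/well given LPS at 10 ng/mL for 18 h after a 2 h compound pre-incubation across a concentration series, with IC50 derived for suppression of TNF secretion.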

[3] = LPS-stimulated human PBMCs, TNF ELISA
[4] = compounds 2 hours before LPS (10 ng/mL) for 18 hours, secreted luciferase
[5] = human PBMCs, compounds 2 hours before LPS (10 ng/ml) for 18 hours, supernatant TNF ELISA

pIC50 ([1]; LPS-stimulated)	pIC50 [2, 3]	pIC50 [1, 4]	pIC50 [2, 5]	Structure (SMILES)
< 5.00	5.00 to 6.00	–	–	CC(C)S(=O)(=O)c1sc(-c2ccccc2)nc1S(=O)(=O)c1ccc(F)c(F)c1 [BC19334]
< 5.00	< 5.00	–	–	Cc1ccc(Cl)cc1NC(=O)CS(=O)(=O)c1[nH]c(-c2ccccc2)nc1S(=O)(=O)c1ccccc1 [BC19335]
< 5.00	< 5.00	–	–	COc1cccc(-c2nc(S(=O)(=O)c3ccc(Cl)cc3)c(S(=O)(=O)C(C)C)[nH]2)c1 [BC19336]
< 5.00	< 5.00	–	–	COCC[S+]([O-])c1[nH]c(-c2cccc(OC)c2)nc1S(=O)(=O)c1ccc(Cl)cc1 (centres unmarked) [BC19337]
< 5.00	< 5.00	–	–	C[S+]([O-])c1[nH]nc(N)c1S(=O)(=O)c1ccccc1 (centres unmarked) [BC19338]
< 5.00	< 5.00	–	–	CS(=O)(=O)c1[nH]nc(N)c1S(=O)(=O)c1ccccc1 [BC19339]
< 5.00	< 5.00	–	–	Cc1nc2c(S(=O)(=O)c3ccccc3)c([S+](C)[O-])nn2c(C)c1C (centres unmarked) [BC19340]
< 5.00	< 5.00	–	–	Cc1cc(O)n2nc([S+](C)[O-])c(S(=O)(=O)c3ccccc3)c2n1 (centres unmarked) [BC19341]
> 7.00	> 7.00	–	–	C[S+]([O-])c1oc(-c2cccc(F)c2)nc1S(=O)(=O)c1ccc(Cl)cc1 (centres unmarked) [BC19342]
5.00 to 6.00	> 7.00	–	–	CS(=O)(=O)c1oc(-c2cccc(F)c2)nc1S(=O)(=O)c1ccc(Cl)cc1 [BC19343]
6.00 to 7.00	6.00 to 7.00	–	–	CCC[S+]([O-])c1oc(-c2cccc(F)c2)nc1S(=O)(=O)c1ccc(Cl)cc1 (centres unmarked) [BC19344]
6.00 to 7.00	6.00 to 7.00	–	–	CCCS(=O)(=O)c1oc(-c2cccc(F)c2)nc1S(=O)(=O)c1ccc(Cl)cc1 [BC19345]
> 7.00	> 7.00	–	–	CC(C)[S+]([O-])c1oc(-c2cccc(F)c2)nc1S(=O)(=O)c1ccc(Cl)cc1 (centres unmarked) [BC19346]
> 7.00	> 7.00	–	–	CC(C)C[S+]([O-])c1oc(-c2cccc(F)c2)nc1S(=O)(=O)c1ccc(Cl)cc1 (centres unmarked) [BC19347]
> 7.00	6.00 to 7.00	–	–	CC(C)CS(=O)(=O)c1oc(-c2cccc(F)c2)nc1S(=O)(=O)c1ccc(Cl)cc1 [BC19348]
6.00 to 7.00	> 7.00	–	–	O=S(=O)(c1ccc(Cl)cc1)c1nc(-c2cccc(F)c2)oc1[S+]([O-])CC1CC1 (centres unmarked) [BC19349]
5.00 to 6.00	5.00 to 6.00	–	–	O=S(=O)(CC1CC1)c1oc(-c2cccc(F)c2)nc1S(=O)(=O)c1ccc(Cl)cc1 [BC19350]
6.00 to 7.00	> 7.00	–	–	COCC[S+]([O-])c1oc(-c2cccc(F)c2)nc1S(=O)(=O)c1ccc(Cl)cc1 (centres unmarked) [BC19351]
6.00 to 7.00	> 7.00	–	–	COCCS(=O)(=O)c1oc(-c2cccc(F)c2)nc1S(=O)(=O)c1ccc(Cl)cc1 [BC19352]
6.00 to 7.00	6.00 to 7.00	–	–	O=S(=O)(c1ccc(Cl)cc1)c1nc(-c2cccc(F)c2)oc1[S+]([O-])C1CCCCC1 (centres unmarked) [BC19353]
–	–	> 7.00	< 5.00	CC1Oc2cc(S(=O)(=O)Nc3ccc(OC(F)(F)F)cc3)c(Cl)cc2NC1=O (centres unmarked) [BC19354]
–	–	> 7.00	< 5.00	CCOc1ccc(NS(=O)(=O)c2cc(Cl)cc3c2OC(C)C(=O)N3)cc1 (centres unmarked) [BC19355]
–	–	5.00 to 6.00	< 5.00	CC1Oc2cc(S(=O)(=O)NCc3ccc(F)cc3F)c(Br)cc2NC1=O (centres unmarked) [BC19356]
–	–	< 5.00	< 5.00	CC1Oc2cc(S(=O)(=O)NCc3ccc(OC(F)(F)F)cc3)c(Br)cc2NC1=O (centres unmarked) [BC19357]
–	–	< 5.00	< 5.00	CC1Oc2cc(S(=O)(=O)NCc3ccc(C(F)(F)F)cc3)c(Br)cc2NC1=O (centres unmarked) [BC19358]
–	–	< 5.00	< 5.00	CC1Oc2cc(S(=O)(=O)NCCc3ccc(OC(F)(F)F)cc3)c(Br)cc2NC1=O (centres unmarked) [BC19359]
–	–	< 5.00	< 5.00	CC1Oc2cc(S(=O)(=O)NC3CCC(O)CC3)c(Br)cc2NC1=O (centres unmarked) [BC19360]
–	–	< 5.00	< 5.00	CC1Oc2cc(S(=O)(=O)NC3CCC(C(C)(C)C)CC3)c(Br)cc2NC1=O (centres unmarked) [BC19361]
